Data on one molecule can be found in patent US20080027088A1, “Imidazole-Based Hmg-Coa Reductase Inhibitors” (Warner-Lambert Company, LLC, priority 2004, published 2008).

The subject of test [1] is ApoE KO mice fed a Western diet. Nature of the test: Sphingomyelin in liver, plasma and aorta by LC/MS, 12 weeks. It counts as in vivo. The settings on record: 0.3 mg/kg/day. The text has this:
Analysis of Sphingolipids and Phospholipids by LC/MS and HPLC-Total lipids were extracted by the modified method of Bligh-Dyer extraction (E. G. Bligh and W. J. Dyer, Can. J. Med. Sci. 1959;37:911-917; and D. K. Perry, A. Bielawska and Y. A. Hannun, Methods Enzymol. 2000;312:22-31). A Micromass (Waters Corp., Milford, Mass.) Quattro Ultima tandem quadrupole mass spectrometer with a standard Z-sprayTM ion source, set to electrospray positive ionization mode, with MassLynxTM version 3.5 operating software, was used for all quantitative determinations. Source conditions were typically as follows: capillary 3.5 kV, source temperature 110 degrees C., and desolvation temperature 325 degrees C. Multipliers were set to 650 V, and the dwell time for each analyte was 100 milliseconds. Precursor-to-product ion transitions were established through direct infusion of each compound into the mass spectrometer. The following ion transitions were used for quantification: sphingomyelin (704→184 m/z), sphinganine (302→284 m/z), ceramide (566→264 m/z) and psychosine (462→282 m/z) as an internal standard. For the instrument, at a collision cell pressure of 2×10^-3 mbar argon, cone and collision voltages were as follows: sphingomyelin (45V, 25 eV), sphinganine (45V, 15 eV), ceramide (45V, 25 eV) and psychosine (45V, 25 eV). The liquid chromatography system was composed of twin Shimadzu (Columbia, Md.) LC-10ADvp HPLC pumps with a SCL-10Avp controller (flow rate 0.2 mL/minute), and a LEAP Technologies (Carrboro, N.C.) CTC PAL autosampler. For the quantitative method, the analytical column was a Phenomenex (Torrance, Calif.) Polar-RP (2.0×150 mm, 4 μm) with a […] (Torrance, Calif.) MetaGuard Polaris C8 2.0 mm direct connect (5 μm) guard column. […] Lipid extracts were analyzed by HPLC and evaporative light scattering detector to determine plasma sphingomyelin and phosphatidylcholine (PC) levels (R. Homan and M.K. Anderson, J. Chromatogr. B. Biomed. Sci. Appl. 1998;708:21-6). […] Sphingomyelin levels in liver (A), plasma (B), and aorta (C) were determined by LC/MS. […]

In test [2] the target is T1, serine palmitoyltransferase (SPT) (Mus musculus, UniProt O35704+P97363).
T1 construct: from tissue; host or cells: mouse liver (ApoE KO and C57Bl/6J mice), cell-free homogenate
T1 sequence (P97363 1-560): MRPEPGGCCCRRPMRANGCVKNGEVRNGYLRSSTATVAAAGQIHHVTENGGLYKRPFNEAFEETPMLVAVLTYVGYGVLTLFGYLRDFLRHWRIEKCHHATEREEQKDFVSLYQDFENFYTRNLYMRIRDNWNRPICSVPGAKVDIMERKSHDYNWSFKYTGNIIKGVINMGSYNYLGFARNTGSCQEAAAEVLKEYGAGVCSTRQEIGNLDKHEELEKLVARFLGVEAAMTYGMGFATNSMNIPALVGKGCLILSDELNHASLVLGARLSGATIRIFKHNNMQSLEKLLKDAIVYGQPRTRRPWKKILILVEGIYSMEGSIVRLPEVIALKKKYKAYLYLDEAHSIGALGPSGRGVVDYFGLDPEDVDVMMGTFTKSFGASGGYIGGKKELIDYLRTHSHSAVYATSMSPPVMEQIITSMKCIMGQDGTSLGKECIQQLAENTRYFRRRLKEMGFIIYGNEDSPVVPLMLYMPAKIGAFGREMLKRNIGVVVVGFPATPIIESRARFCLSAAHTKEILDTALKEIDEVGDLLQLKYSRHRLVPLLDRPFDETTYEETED
T1 sequence (O35704 1-473): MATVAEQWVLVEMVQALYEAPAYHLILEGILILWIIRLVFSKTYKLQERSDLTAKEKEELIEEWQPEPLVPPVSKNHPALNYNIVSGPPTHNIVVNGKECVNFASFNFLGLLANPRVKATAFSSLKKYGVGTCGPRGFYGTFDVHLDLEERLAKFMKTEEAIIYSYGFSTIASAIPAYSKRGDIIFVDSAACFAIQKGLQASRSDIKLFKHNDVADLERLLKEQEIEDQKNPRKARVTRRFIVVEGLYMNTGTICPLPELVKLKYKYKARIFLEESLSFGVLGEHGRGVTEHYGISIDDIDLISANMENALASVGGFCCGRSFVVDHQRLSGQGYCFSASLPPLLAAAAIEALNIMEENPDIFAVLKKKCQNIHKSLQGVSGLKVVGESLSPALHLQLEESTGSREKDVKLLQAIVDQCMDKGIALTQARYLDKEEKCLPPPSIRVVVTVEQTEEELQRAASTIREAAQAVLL
T1 sequence (Q8R207 1-71 partner): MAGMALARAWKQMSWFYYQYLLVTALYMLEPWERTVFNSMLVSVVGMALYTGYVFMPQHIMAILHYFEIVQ
Nature of the test: SPT activity of liver cell-free homogenate (14C-serine, palmitoyl CoA, TLC). Conditions: 0.3 mg/kg/day, 12 weeks. It counts as in vivo, mice. The procedure: Liver tissues from each group were homogenized and SPT activity was measured using ^14C-serine and palmitoyl CoA as substrates and thin-layer chromatography (TLC) analysis (K. Gable et al., J. Biol. Chem. 2000;275(11):7597-603). FIGS. 1-A, 1-B, 1-C, 1-D and 1-E. SPT gene expression and enzyme activity. Mice were treated with 0.3 mg/kg/day myriocin for 12 weeks by mixing with Western diet chow. Liver was isolated and total mRNA and cell-free homogenate were prepared. SPT mRNA expression was quantified by quantitative RT-PCR. Expression was described as a ratio of LCB1 (A) or LCB2 (B) mRNA to 18s RNA or to rodent GAPDH RNA (n=5, P>0.05). SPT activity of cell-free homogenate (C) was measured with ^14C-labeled Serine and palmitoyl-coenzyme A as substrates and analyzed by TLC. Relative amounts of 3-ketosphinganine were determined by densitometry scanning. The values reported are mean±SEM (n=3, *P<0.05).

As for `CCCCCCC(=O)CCCCCC/C=C/C[C@@H](O)[C@H](O)[C@@](N)(CO)C(=O)O` [myriocin], in test [1], the “aorta SM levels decreased” value was 20%. Further, in test [1] (Western diet-fed ApoE KO mice), the “plasma SM lowered” value is on record as 64%. Besides, the “SM accumulation in liver” value in test [1] (vs Western diet-fed ApoE KO mice) is listed as “lowered”. The “decrease of SPT activity in the liver” value in test [2] (compared with the C57BI/6J control group) was determined as 48%; in test [2] (compared with untreated Western diet-fed ApoE KO mice), 66%.
